# Reference: patent US11180479B2 (HAPLOGEN GmbH, priority 2017, dated 2021)
# Legend:
# PLA2G16 = target: T1, PLA2G16 (Homo sapiens, UniProt P53816); experiment: Enzyme activity assay for PLA2G16 (Red/Green BODIPY PC-A2 fluorescence); type: biochemical; settings: His-tagged PLA2G16, 4 min pre-incubation, compound 2 nM to 50 μM; first symbol in parentheses
# T1 construct: Hexa-His (N); made in house; host or cells: E. coli BL21(DE3)
# T1 sequence (P53816 1-162): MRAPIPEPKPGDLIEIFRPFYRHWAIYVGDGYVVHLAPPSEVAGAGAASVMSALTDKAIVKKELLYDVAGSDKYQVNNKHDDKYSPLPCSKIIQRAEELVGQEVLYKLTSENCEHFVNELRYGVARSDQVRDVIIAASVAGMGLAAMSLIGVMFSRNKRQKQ
# How it was run: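 N-His human PLA2G16 was expressed in E. coli and Ni-NTA purified. Enzyme in 5 mM glutathione was preincubated 4 min with compound (2 nM–50 μM final), then Red/Green BODIPY PC-A2 in DOPC/DOPG/cholesterol vesicles was added (50 mM Tris pH 8.5, 100 mM NaCl). Fluorescence increase (ex 480/em 530 nm) over 10 min gave activity; IC50 came from nonlinear regression.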
# [1] = tested on: picornaviruses (CVB1, HRV-A2, HRV-A23, EV-68); experiment: Anti-picornavirus cytopathic effect (CPE) reduction assay on HeLa H1 cells; type: cell-based; settings: 48 h, category from averaging EC50 values of four picornaviruses (CVB1, HRV-A2, HRV-A23, EV68), second symbol in parentheses
# How it was run: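 HeLa H1 cells pre-treated 2 h with serial compound dilutions in 2% FBS DMEM, then infected at an MOI giving full CPE in 2 days; after 48 h, viability by CellTiterBlue fluorescence (560/590 nm) normalised to infected and uninfected vehicle controls; EC50 by non-linear regression, averaged over the four viruses.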
IC50 (PLA2G16) [nM],EC50 [1] [nM],Structure (SMILES)
< 1000,< 1000,"O=C(NCC1CC1)C(=O)[C@H]1CNC(=O)[C@@H]1Cc1ccccc1 (single isomer, unassigned) [FP-81]"
< 1000,1000 to 10000,"O=C(NCC1CC1)C(=O)[C@@H]1CNC(=O)[C@H]1Cc1ccccc1 (single isomer, unassigned) [FP-82]"
< 1000,< 1000,"O=C(NCC(F)F)C(=O)[C@H]1CNC(=O)[C@@H]1Cc1ccccc1 (single isomer, unassigned) [FP-83]"
1000 to 10000,> 10000,"O=C(NCC(F)F)C(=O)[C@@H]1CNC(=O)[C@H]1Cc1ccccc1 (single isomer, unassigned) [FP-84]"
1000 to 10000,> 10000,"CC(C)CNC(=O)C(=O)[C@@H]1CN(CC(=O)N(C)C)C(=O)[C@H]1Cc1ccccc1 (single isomer, unassigned) [FP-91]"
< 1000,1000 to 10000,"CC(C)CNC(=O)C(=O)[C@H]1CN(CC(=O)N(C)C)C(=O)[C@@H]1Cc1ccccc1 (single isomer, unassigned) [FP-92]"
< 1000,1000 to 10000,"CC(F)(F)CNC(=O)C(=O)[C@@H]1CN(c2cncnc2)C(=O)[C@H]1Cc1ccccc1 (single isomer, unassigned) [FP-96]"
1000 to 10000,> 10000,"Cn1ncnc1CN1C[C@@H](C(=O)C(=O)NC2CC2)[C@H](Cc2ccccc2)C1=O (single isomer, unassigned) [FP-97]"
< 1000,1000 to 10000,"Cn1ncnc1CN1C[C@H](C(=O)C(=O)NC2CC2)[C@@H](Cc2ccccc2)C1=O (single isomer, unassigned) [FP-98]"

# The next lines start with the compound.
Structure (SMILES),IC50 (PLA2G16) [nM],EC50 [1] [nM]
"Cc1cc(CN2C[C@H](C(=O)C(=O)NC3CC3)[C@@H](c3ccccc3)C2=O)no1 (racemic) [FP-100, Rac-N-cyclopropyl-2-[(3R,4S)-1-[(5-methyl-1,2-oxazol-3-yl)methyl]-5-oxo-4-phenylpyrrolidin-3-yl]-2-oxoacetamide]",< 1000,1000 to 10000
"Cc1cc(CN2C[C@H](C(=O)C(=O)NC(C)C)[C@@H](c3ccccc3)C2=O)no1 (racemic) [FP-101, Rac-2-[(3R,4S)-1-[(5-methyl-1,2-oxazol-3-yl)methyl]-5-oxo-4-phenylpyrrolidin-3-yl]-2-oxo-N-(propan-2-yl)acetamide]",< 1000,1000 to 10000
"COc1ccc(CN2C[C@H](C(=O)C(=O)NC3CC3)[C@@H](c3ccccc3)C2=O)cc1 (racemic) [FP-102, Rac-N-cyclopropyl-2-[(3R,4S)-1-[(4-methoxyphenyl)methyl]-5-oxo-4-phenylpyrrolidin-3-yl]-2-oxoacetamide]",< 1000,< 1000
"CCCCNC(=O)C(=O)[C@H]1CNC(=O)[C@@H]1c1ccccc1 (racemic) [FP-103, Rac-N-butyl-2-oxo-2-[(3R,4S)-5-oxo-4-phenylpyrrolidin-3-yl]acetamide]",< 1000,< 1000
"O=C(NCC1CC1)C(=O)[C@@H]1CNC(=O)[C@H]1c1ccccc1 (single isomer, unassigned) [FP-85]",< 1000,> 10000
"O=C(NCC1CC1)C(=O)[C@H]1CNC(=O)[C@@H]1c1ccccc1 (single isomer, unassigned) [FP-86]",< 1000,< 1000
"CC(F)(F)CNC(=O)C(=O)[C@@H]1CNC(=O)[C@H]1c1ccccc1 (single isomer, unassigned) [FP-87]",1000 to 10000,> 10000
"CC(F)(F)CNC(=O)C(=O)[C@H]1CNC(=O)[C@@H]1c1ccccc1 (single isomer, unassigned) [FP-88]",< 1000,< 1000
"O=C(NC1CC1)C(=O)[C@H]1CN(c2cncnc2)C(=O)[C@@H]1Cc1ccccc1 (single isomer, unassigned) [FP-89]",< 1000,< 1000
"O=C(NC1CC1)C(=O)[C@@H]1CN(c2cncnc2)C(=O)[C@H]1Cc1ccccc1 (single isomer, unassigned) [FP-90]",< 1000,1000 to 10000
"O=C(NC1CC1)C(=O)[C@H]1CN(c2cnccn2)C(=O)[C@@H]1Cc1ccccc1 (single isomer, unassigned) [FP-93]",< 1000,< 1000
"O=C(NC1CC1)C(=O)[C@@H]1CN(c2cnccn2)C(=O)[C@H]1Cc1ccccc1 (single isomer, unassigned) [FP-94]",< 1000,1000 to 10000
"CC(F)(F)CNC(=O)C(=O)[C@H]1CN(c2cncnc2)C(=O)[C@@H]1Cc1ccccc1 (single isomer, unassigned) [FP-95]",< 1000,< 1000
"O=C(NC1CC1)C(=O)C1CC(=O)N(Cc2ccccc2)C1 (stereo not shown) [FP-104, 2-(1-Benzyl-5-oxopyrrolidin-3-yl)-N-cyclopropyl-2-oxoacetamide]",< 1000,1000 to 10000
